Target: T1, MupG (Staphylococcus aureus, UniProt A0A0H2XHV5)
T1 sequence (A0A0H2XHV5 1-351): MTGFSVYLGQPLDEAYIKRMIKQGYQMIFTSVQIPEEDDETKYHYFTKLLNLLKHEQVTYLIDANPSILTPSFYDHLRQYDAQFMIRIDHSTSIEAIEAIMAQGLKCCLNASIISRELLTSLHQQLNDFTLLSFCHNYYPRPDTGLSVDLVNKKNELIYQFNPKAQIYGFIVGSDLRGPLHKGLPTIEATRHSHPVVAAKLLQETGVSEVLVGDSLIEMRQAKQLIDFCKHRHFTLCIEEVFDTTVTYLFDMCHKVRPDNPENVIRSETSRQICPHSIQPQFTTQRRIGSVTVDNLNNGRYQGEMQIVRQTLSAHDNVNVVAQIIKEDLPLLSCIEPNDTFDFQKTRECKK
Assay: LC-MS of hydrolysis by recombinant enzyme
Type: biochemical
Conditions: substrate in acetone extract of ΔmupG cytosol; 1 μg enzyme, 2.5 h, 37 °C; products MurNAc 6P and GlcNAc

Which “LC-MS of hydrolysis by recombinant enzyme” value does the source give for `CC(=O)N[C@H]1[C@H](O[C@H]2[C@H](O)[C@@H](NC(C)=O)C(O)O[C@@H]2CO)O[C@H](COP(=O)(O)O)[C@@H](O)[C@@H]1O[C@H](C)C(=O)O` (stereo partly shown) [MurNAc 6P-GlcNAc] here?
The value was “recombinantly produced MupG cleaved MurNAc 6P-GlcNAc, releasing MurNAc 6P and GlcNAc”.

— publication PMC6262408, “Recovery of the Peptidoglycan Turnover Product Released by the Autolysin Atl in Staphylococcus aureus Involves the Phosphotransferase System Transporter MurP and the Novel 6-phospho-N-acetylmuramidase MupG” (Frontiers in Microbiology, 2018)
